Measured values taken from ChEMBL document CHEMBL4339205, “Design, synthesis, and biological evaluation of novel pyrrolo[1,2-a]pyrazine derivatives” (Bioorg Med Chem Lett, 2019).
Activity calls are given as the source filed them. The rule behind the calls is not given here.

Experiments:
U-937 [1] = assay: Cytotoxicity against human U937 cells assessed as reduction in cell viability measured after 3 days by CCK8 assay; type: functional, cell-based; conditions: U-937, 72 h
U-937 [2] = assay: Induction of apoptosis in human U937 cells assessed as necrotic cells at 0.3 uM measured after 3 days by muse Annexin V/dead cell reagent staining-based flow cytometry (reference value: 2.5 %); type: functional
U-937 [3] = assay: Induction of apoptosis in human U937 cells assessed as early apoptotic cells at 0.3 uM measured after 2 days by muse Annexin V/dead cell reagent staining-based flow cytometry (reference value: 0.7 %); type: functional
U-937 [4] = assay: Induction of apoptosis in human U937 cells assessed as late apoptotic cells at 0.3 uM measured after 1 day by muse Annexin V/dead cell reagent staining-based flow cytometry (reference value: 1.75 %); type: functional
U-937 [5] = assay: Induction of apoptosis in human U937 cells assessed as necrotic cells at 0.3 uM measured after 1 day by muse Annexin V/dead cell reagent staining-based flow cytometry (reference value: 2.5 %); type: functional
U-937 [6] = assay: Induction of apoptosis in human U937 cells assessed as live cells at 0.3 uM measured after 2 days by muse Annexin V/dead cell reagent staining-based flow cytometry (reference value: 95.05 %); type: functional
U-937 [7] = assay: Induction of apoptosis in human U937 cells assessed as early apoptotic cells at 0.3 uM measured after 3 days by muse Annexin V/dead cell reagent staining-based flow cytometry (reference value: 0.7 %); type: functional
U-937 [8] = assay: Induction of apoptosis in human U937 cells assessed as early apoptotic cells at 0.3 uM measured after 1 day by muse Annexin V/dead cell reagent staining-based flow cytometry (reference value: 0.7 %); type: functional
U-937 [9] = assay: Induction of apoptosis in human U937 cells assessed as late apoptotic cells at 0.3 uM measured after 3 days by muse Annexin V/dead cell reagent staining-based flow cytometry (reference value: 1.75 %); type: functional
U-937 [10] = assay: Induction of apoptosis in human U937 cells assessed as late apoptotic cells at 0.3 uM measured after 2 days by muse Annexin V/dead cell reagent staining-based flow cytometry (reference value: 1.75 %); type: functional
U-937 [11] = assay: Cytotoxicity against human U937 cells assessed as reduction in cell viability at 10 uM measured after 3 days by CCK8 assay; type: functional, cell-based
U-937 [12] = assay: Induction of apoptosis in human U937 cells assessed as necrotic cells at 0.3 uM measured after 2 days by muse Annexin V/dead cell reagent staining-based flow cytometry (reference value: 2.5 %); type: functional
U-937 [13] = assay: Induction of apoptosis in human U937 cells assessed as live cells at 0.3 uM measured after 3 days by muse Annexin V/dead cell reagent staining-based flow cytometry (reference value: 95.05 %); type: functional
U-937 [14] = assay: Induction of apoptosis in human U937 cells assessed as live cells at 0.3 uM measured after 1 day by muse Annexin V/dead cell reagent staining-based flow cytometry (reference value: 95.05 %); type: functional
[15] = target: c-Jun N-terminal kinase, JNK (Homo sapiens) (UniProt P45983+P53779+P45984); assay: Inhibition of JNK phosphorylation in human U937 cells at 0.3 uM measured after 1 to 3 hrs y Western blot analysis; type: cell-based
[16] = target: T1, Protein farnesyltransferase (Homo sapiens) (UniProt P49354+P49356); assay: Inhibition of FTase in human U937 cells assessed as reduction in p38 MAPK phosphorylation at 0.3 uM measured after 1 to 3 hrs y Western blot analysis; type: cell-based
U-937 [17] = assay: Induction of apoptosis in human U937 cells assessed as increase in caspase-3/7 activity up to 1 uM after 24 hrs; type: functional, cell-based
[18] = target: T1, Protein farnesyltransferase (Homo sapiens); assay: Inhibition of FTase (unknown origin); type: protein-complex assay
Homo sapiens = organism: Homo sapiens; assay: Inhibition of ERK phosphorylation in human U937 cells at 0.3 uM measured after 1 to 3 hrs y Western blot analysis; type: cell-based
CCD-18Co = assay: Cytotoxicity against human CCD-18Co cells assessed as reduction in cell viability measured after 3 days by CCK8 assay; type: cell-based; conditions: 72 h

Nc1ccn([C@@H]2O[C@H](CO)[C@@H](O)[C@@H]2O)c(=O)n1 [CYTARABINE]
IC50 (U-937 [1]): 2 nM | Activity (U-937 [2]): 11.05% | Activity (U-937 [3]): 2.65% | Activity (U-937 [4]): 5.55% | Activity (U-937 [5]): 11.2% | Activity (U-937 [6]): 83.2% | Activity (U-937 [7]): 8.7% | Activity (U-937 [8]): 4.2% | Activity (U-937 [9]): 10.55% | Activity (U-937 [10]): 5.35% | Activity (U-937 [11]): Active | Activity (U-937 [12]): 8.8% | Activity (U-937 [13]): 69.7% | Activity (U-937 [14]): 79.05%

O=C(/C=C/c1cccnc1)c1ccn2cc(-c3ccccc3)ncc12
IC50 (U-937 [1]): 630 nM | Activity (U-937 [11]): Active

COc1ccccc1/C=C/C(=O)c1ccn2cc(-c3ccccc3)ncc12
IC50 (U-937 [1]): 770 nM | Activity (U-937 [11]): Active

COc1ccc(/C=C/C(=O)c2ccn3cc(-c4ccccc4)ncc23)cc1
Activity (U-937 [11]): Active

O=C(/C=C/c1ccncc1)c1ccn2cc(-c3ccccc3)ncc12
IC50 (U-937 [1]): 690 nM | Activity (U-937 [11]): Active

COc1ccc(OC)c(/C=C/C(=O)c2ccn3cc(-c4ccccc4)ncc23)c1
Activity (U-937 [11]): inactive

O=C(/C=C/c1ccccc1Cl)c1ccn2cc(-c3ccccc3)ncc12
Activity (U-937 [11]): inactive

O=C(/C=C/c1ccccc1I)c1ccn2cc(-c3ccccc3)ncc12
Activity (U-937 [11]): inactive

COc1cccc(/C=C/C(=O)c2ccn3cc(-c4ccccc4)ncc23)c1
Activity (U-937 [11]): Active

O=C(/C=C/c1ccccc1Br)c1ccn2cc(-c3ccccc3)ncc12
Activity (U-937 [11]): inactive

COc1ccc(/C=C/C(=O)c2ccn3cc(-c4ccccc4)ncc23)c(OC)c1
IC50 (U-937 [1]): 180 nM | Activity (U-937 [2]): 5.2% | inhibition [15]: inactive | Activity (U-937 [3]): 2.15% | Activity (U-937 [4]): 4.85% | Activity (U-937 [5]): 8.4% | Activity (U-937 [6]): 88.55% | Activity (U-937 [7]): 5.95% | Activity (U-937 [8]): 2.3% | inhibition [16]: Active | Activity (U-937 [17]): Active | Activity (U-937 [9]): 5.7% | Activity (U-937 [10]): 4.2% | inhibition [18]: Active | Activity (U-937 [12]): 5.1% | Activity (U-937 [13]): 83.15% | Activity (U-937 [14]): 84.45% | inhibition (Homo sapiens): inactive | IC50 (CCD-18Co): 7.44 µM

O=C(/C=C/c1ccccn1)c1ccn2cc(-c3ccccc3)ncc12
IC50 (U-937 [1]): 880 nM | Activity (U-937 [11]): Active

O=C(/C=C/c1ccccc1F)c1ccn2cc(-c3ccccc3)ncc12
Activity (U-937 [11]): inactive
